In ChEMBL document CHEMBL1128019, “Gem-disubstituted amino-ether based substance p antagonists” (Bioorg Med Chem Lett, 1994):

Molecular target: Substance-P receptor (Homo sapiens, UniProt P25103)
Assay: Binding affinity for human NK1 receptor expressed in CHO cells
Assay type: cell-based

Chain of Substance-P receptor (P25103 whole entry): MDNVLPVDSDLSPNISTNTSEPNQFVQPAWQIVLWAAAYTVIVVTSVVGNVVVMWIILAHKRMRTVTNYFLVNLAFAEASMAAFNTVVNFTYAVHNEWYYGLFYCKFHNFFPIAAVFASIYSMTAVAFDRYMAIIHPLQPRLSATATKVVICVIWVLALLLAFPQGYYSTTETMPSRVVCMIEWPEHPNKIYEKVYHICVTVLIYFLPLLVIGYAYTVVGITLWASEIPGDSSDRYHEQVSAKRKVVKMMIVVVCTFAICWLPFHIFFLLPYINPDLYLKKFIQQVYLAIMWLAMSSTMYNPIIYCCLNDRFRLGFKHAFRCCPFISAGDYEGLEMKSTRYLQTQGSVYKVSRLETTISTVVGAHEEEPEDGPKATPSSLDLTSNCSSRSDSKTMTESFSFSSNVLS

| IC50 [nM] | Structure (SMILES) |
| --- | --- |
| 1 | FC(F)(F)c1cc(COC[C@]2(c3ccccc3)CCCCN2)cc(C(F)(F)F)c1 |
| 20 | FC(F)(F)c1cc(COC[C@]2(c3ccccc3)CCCN2)cc(C(F)(F)F)c1 |
